Results published in the NIST ThermoML archive (doi:10.1021/je300827f).
Numbers after ± are expanded uncertainties.

Test: xn = mol fraction of the nth substance listed
Settings: 101 kPa, Liquid, x2 = 0; for viscosity: Capillary tube (Ostwald / Ubbelohde) method; for mass density: Vibrating tube method

Work on CC(C)O [propan-2-ol] + OCCOCCO yielded a viscosity (298.15 K) of 2.06 ± 0.08 mPa·s, a mass density (298.15 K) of 781.1 ± 0.2 kg/m3 and a viscosity (303.15 K) of 1.79 ± 0.07 mPa·s. For the same molecule, the mass density (303.15 K) was 776.7 ± 0.2 kg/m3, the viscosity (308.15 K) was 1.56 ± 0.06 mPa·s and the mass density (308.15 K) was 771.8 ± 0.2 kg/m3. It also gave a viscosity (313.15 K) of 1.38 ± 0.06 mPa·s and a mass density (313.15 K) of 767.4 ± 0.2 kg/m3.
